Reference: patent US20040213757A1, “Water soluble wortmannin derivatives” (Wyeth Holdings Corporation, priority 2003, published 2004)
Values after ≈ are worked out from the molar mass of the structure shown.

Columns and labels:
[1] = system: C3H mammary model; conditions: cited from earlier work
[2] = system: PI3K; conditions: cited from earlier work
[3] = system: U87MG glioblastoma; conditions: for Tumor Volume t/c, day 0 / Tumor Volume, mean, day 0 / Tumor Volume t/c, day 4 / Tumor Volume, mean, day 4 / Tumor Volume t/c, day 7 / Tumor Volume, mean, day 7 / Tumor Volume t/c, day 11 / Tumor Volume, mean, day 11 / Tumor Volume t/c, day 14 / Tumor Volume, mean, day 14 / Tumor Volume t/c, day 17 / Tumor Volume, mean, day 17: 0.7 mg/kg IV, d 0-4
Method: A tumor cell line for brain tumor, PTEN (−/−) U87MG Glioma was implanted in mice. The mice were dosed IV on days 0-4.
In this experiment, U87MG glioma growing as subcutaneous xenografts in nude mice were staged on day 0, and dosed on days 0-4 at 0.15, 0.5, 1.5, 5 and 15 mg/kg/dose of a wortmannin derivative of this invention.
In the U87MG glioma study shown in FIG. 3, a wortmannin derivative of this invention was dosed IV on days 0-4. Paclitaxel was dosed IP on days 0 and 7. The MTD of paclitaxel is 60 mg/kg/dose following a weekly dosing schedule. Mice were treated with a wortmannin derivative of this invention at 1 mg/kg/dose, paclitaxel at 30 and 60 mg/kg/dose, or treated in combination with a wortmannin derivative of this invention at 1 mg/kg/dose and paclitaxel at 30 mg/kg/dose.
A wortmannin derivative at 1 mg/kg/dose and Peg-rapa at 0.1 mg/kg/dose were dosed IV either alone or in combination on days 0-4.
Balb/c nu/nu (athymic) mice were housed in accordance with Association for Accreditation of Laboratory Animal Care (AALAACC) standards for at least one week prior to their experimental usage. The animals were housed in microisolator cages and handled only in a laminar flow hood. All food and water was autoclaved. Mice were inoculated on the left flank with a volume of 200 μL using a 25-26 gauge sterile needle and syringe with a suspension of cells. The cells were resuspended in full growth media and delivered at 10 million cells per mouse. When the resulting tumors reached the appropriate size for staging, the mice were regrouped to produce equivalent sized groups with n=10. Once staged, the mice were dosed 0.2 cc iv with the water-soluble drug-polymer conjugate II and water-soluble drug-polymer conjugate IV resuspended in sterile, distilled water. Wortmannin and other non-pegylated water-soluble drug-polymer conjugate were prepared 10 mg/ml in Dimethyl sulfoxide (DMSO) and diluted with Phosphate Buffered Saline (PBS) right before injecting into the mouse. Treatment was administered as a daily×5 dosing schedule repeated every 2 weeks until the tumors reach 10% of the animal's weight. The growth of the solid tumor was monitored twice a week for the duration of the experiment. Tumor size was quantitated using sliding vernier calipers and the mass was calculated using the formula […]. Conversion from cubic mm to mg was made assuming unit density. Tumors were not allowed to grow larger than 15% of the mouse's weight, at which point the mouse was euthanized.

[4] = system: A549 (human non-small cell lung cancer); assay: Thymidine incorporation proliferation assay, A549; type: cell-based; conditions: three days of treatment
Method: (§1) A549 (human non-small cell lung cancer) and H-157 cell lines were purchased from American Type Culture Collection (ATCC) (Rockville, Md.). Cells were cultured in RPMI Medium 1640 containing 10% fetal bovine serum (FBS) in a 37° C. incubator containing 5% CO2. All cell culture reagents were purchased from Gibco-BRL (Grand Island, N.Y.). Cells were plated in 96-well culture plates at about 3000 cells per well. One day following plating, water-soluble drug-polymer conjugates or the vehicle controls were added to cells. Proliferation assays were performed three days post initiation of treatment. For the non-radioactive cell proliferation assay, viable cell densities were determined by measuring metabolic conversion (by viable cells) of the dye MTS tatrazolium dye, a cell proliferation assay known by one of skill in the art (MTS assay), a previously established cell proliferation assay. The assay was performed using assay kit purchased from Promega Corp. (Madison, Wis.). The assay plates were incubated for 1-2 hours and the results were read in a 96-well format plate reader by measuring absorbance at 490 nm. For the thymidine incorporation assay, cells were labeled with [methyl-^3H]-thymidine (PerkinElmer Life Sciences, Boston, Mass.) for 5 hours. Cells were then harvested onto glass-fiber filter membranes and counted in a Wallac 1205 Betaplate liquid scintillation counter. Effect of each drug treatment was calculated as a percentage of control cell growth obtained from vehicle-treated cells grown in the same plate.

[5] = system: H-157; assay: MTS cell proliferation assay, H-157; type: cell-based, human; conditions: three days of treatment
Method: as §1

[6] = system: H-157; assay: Thymidine incorporation proliferation assay, H-157; type: cell-based, human; conditions: three days of treatment
Method: as §1

[7] = system: A549 (human non-small cell lung cancer); assay: MTS cell proliferation assay, A549; type: cell-based; conditions: three days of treatment
Method: as §1

| Compound | Tumor Volume t/c, day 0 [3] | Tumor Volume, mean, day 0 [3] [mm^3] | Tumor Volume t/c, day 4 [3] | Tumor Volume, mean, day 4 [3] [mm^3] | Tumor Volume t/c, day 7 [3] | Tumor Volume, mean, day 7 [3] [mm^3] | Tumor Volume t/c, day 11 [3] | Tumor Volume, mean, day 11 [3] [mm^3] | Tumor Volume t/c, day 14 [3] | Tumor Volume, mean, day 14 [3] [mm^3] | Tumor Volume t/c, day 17 [3] | Tumor Volume, mean, day 17 [3] [mm^3] | Thymidine Assay IC50, A549 [4] [µg/mL] | MTS Assay IC50, H-157 [5] [µg/mL] | Thymidine Assay IC50, H-157 [6] [µg/mL] | MTS Assay IC50, A549 [7] [µg/mL] | further results |
| --- | --- | --- | --- | --- | --- | --- | --- | --- | --- | --- | --- | --- | --- | --- | --- | --- | --- |
| COCC1OC(=O)c2coc3c2C1(C)C1=C(C3=O)C2CCC(O)C2(C)CC1OC(C)=O (stereo not drawn) [17β-Hydroxywortmannin] |  |  |  |  |  |  |  |  |  |  |  |  |  |  |  |  | antitumor activity in the C3H mammary model ([1]; dose of 0.5 mg/kg): no inhibition; toxicity in the C3H mammary model ([1]; dose of 1.0 mg/kg): toxicity; increase in activity relative to wortmannin ([2]; PI3K): 10 fold; IC50 [2]: 0.5 nM |
| Conjugate (III) of M-PEG-SH 5000 and 17-dihydro-17-(1-iodoacetyl)-wortmannin [Water-soluble drug-polymer conjugate III] | 1.01 | 137.4 | 0.51 | 144.0 | 0.37 | 120.2 | 0.51 | 300.2 | 0.50 | 547.0 | 0.44 | 926.8 | >3 | >3 | >3 | >3 |  |
| COC[C@H]1OC(=O)c2coc3c2[C@@]1(C)C1=C(C3=O)[C@@H]2CCC(=O)[C@@]2(C)C[C@H]1OC(C)=O [Wortmannin] |  |  |  |  |  |  |  |  |  |  |  |  |  |  |  |  | IC50 ([4]; Homo sapiens, 72 h): 2.5 µg/mL (≈ 5.84 µM); IC50 ([5]; Homo sapiens, NCI-H157, 72 h): 10 µg/mL (≈ 23.3 µM); IC50 ([6]; Homo sapiens, NCI-H157, 72 h): 3.2 µg/mL (≈ 7.47 µM); IC50 ([7]; Homo sapiens, 72 h): 9 µg/mL (≈ 21 µM) |
| CC(=O)O[C@H]1C(=O)[C@@]2(C)[C@H]([C@H](OC(=O)c3ccccc3)[C@]3(O)C[C@H](OC(=O)[C@H](O)[C@@H](NC(=O)c4ccccc4)c4ccccc4)C(C)=C1C3(C)C)[C@]1(OC(C)=O)CO[C@@H]1C[C@@H]2O [paclitaxel, reference compound] |  |  |  |  |  |  |  |  |  |  |  |  |  |  |  |  | MTD of paclitaxel ([3]; mouse, in vivo, ip): 60 mg/kg/dose |
| Conjugate (IV) of M-PEG-SH 5000 and 11-desacetyl-11-(1-iodoacetyl)-wortmannin [Water-soluble drug-polymer conjugate IV] | 0.97 | 131.0 | 0.58 | 165.0 | 0.46 | 147.9 | 0.60 | 349.0 | 0.64 | 707.4 | 0.69 | 1454.9 | >3 | >3 | >3 | >3 |  |
